Measured values taken from patent US20250382305A1 (PTC THERAPEUTICS, INC., priority 2022, published 2025).

Key:
[1] = system: Total ATXN3 (tATXN3) protein; test: Endogenous Total ATXN3 (tATXN3) Protein Assay (MSD immunoassay of cell lysates); assay type: cell-based; conditions: average IC50, total ATXN3 protein in cell lysate after 48 h with compound (Table 1)
Summary of the method: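 By electrochemiluminescent MSD sandwich immunoassay (mouse monoclonal capture, rabbit monoclonal and SULFO-TAG anti-rabbit detection), endogenous ATXN3 was quantified in lysates of cells treated 48 h at 37° C at 10,000 cells/well. Treatment used a 7-point 3.16-fold duplicate dilution series, with average IC50 grouped into star categories.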

ATXN3 pre-mRNA = test: RT-qPCR Assay to Quantify Exon 4 Skipping in ATXN3 pre-mRNA in Cells; assay type: cell-based; conditions: percent exon 4 skipping in ATXN3 pre-mRNA, RT-qPCR of cell lysates; average IC50
Summary of the method: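 IC50 derives from a dose-response fit of percent exon 4 skipping, quantified by RT-qPCR on crude lysates. Compounds tested as 7-point 3.16-fold dilutions in duplicate; cells (10,000/well) were exposed for 24 h at 37 °C before lysis.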

N[C@H]1CC=CC[C@@H]1c1sc2c(NCc3ccco3)cc(Cl)nc2c1I [Compound 188, 2-((1S,6S)-6-aminocyclohex-3-en-1-yl)-5-chloro-N-(furan-2-ylmethyl)-3-iodothieno[3,2-b]pyridin-7-amine]
IC50 [1]: ≤ 30 nM
IC50 (ATXN3 pre-mRNA): ≤ 30 nM

2-((3R,4S)-3-aminotetrahydro-2H-pyran-4-yl)-3-bromo-5-chloro-N-(furan-2-ylmethyl)thieno[3,2-b]pyridin-7-amine and 2-((3S,4R)-3-aminotetrahydro-2H-pyran-4-yl)-3-bromo-5-chloro-N-(furan-2-ylmethyl)thieno[3,2-b]pyridin-7-amine [Compound 316]
IC50 [1]: 30 to 300 nM
IC50 (ATXN3 pre-mRNA): 30 to 300 nM

N[C@@H]1CC=CC[C@H]1c1sc2c(NCc3cccs3)cc(Cl)nc2c1Cl.N[C@H]1CC=CC[C@@H]1c1sc2c(NCc3cccs3)cc(Cl)nc2c1Cl (mixture of isomers) [Compound 431, 2-((1R,6R)-6-aminocyclohex-3-en-1-yl)-3,5-dichloro-N-(thiophen-2-ylmethyl)thieno[3,2-b]pyridin-7-amine and 2-((1S,6S)-6-aminocyclohex-3-en-1-yl)-3,5-dichloro-N-(thiophen-2-ylmethyl)thieno[3,2-b]pyridin-7-amine]
IC50 [1]: ≤ 30 nM
IC50 (ATXN3 pre-mRNA): ≤ 30 nM

N[C@H]1CCCO[C@@H]1c1sc2c(NCc3ccccc3)cc(Cl)nc2c1Cl [Compound 110, 2-((2S,3S)-3-aminotetrahydro-2H-pyran-2-yl)-N-benzyl-3,5-dichlorothieno[3,2-b]pyridin-7-amine]
IC50 [1]: 30 to 300 nM
IC50 (ATXN3 pre-mRNA): ≤ 30 nM

N[C@H]1CCCN(c2ccccc2)[C@@H]1c1sc2c(NCc3cccs3)cc(Cl)nc2c1Br (mixture of isomers) [Compound 124, 2-((2R,3R)-3-amino-1-phenylpiperidin-2-yl)-3-bromo-5-chloro-N-(thiophen-2-ylmethyl)thieno[3,2-b]pyridin-7-amine and 2-((2S,3S)-3-amino-1-phenylpiperidin-2-yl)-3-bromo-5-chloro-N-(thiophen-2-ylmethyl)thieno[3,2-b]pyridin-7-amine]
IC50 [1]: > 1000 nM
IC50 (ATXN3 pre-mRNA): > 1000 nM

CC#CCNc1cc(Cl)nc2c(C)c([C@H]3CCCC[C@@H]3N)sc12 [Compound 363, 2-((1S,2S)-2-aminocyclohexyl)-N-(but-2-yn-1-yl)-5-chloro-3-methylthieno[3,2-b]pyridin-7-amine]
IC50 [1]: 30 to 300 nM
IC50 (ATXN3 pre-mRNA): 30 to 300 nM

N[C@@H]1CCCCC[C@@H]1c1cc2nc(Cl)cc(NCc3cccs3)c2s1 [Compound 88, 2-((1S,2R)-2-aminocycloheptyl)-5-chloro-N-(thiophen-2-ylmethyl)thieno[3,2-b]pyridin-7-amine]
IC50 [1]: > 1000 nM
IC50 (ATXN3 pre-mRNA): > 1000 nM

N[C@H]1CC=CC[C@@H]1c1c(Cl)c2nc(Cl)cc(NCc3ccccc3)c2n1C(F)F [Compound 420, 2-((1S,6S)-6-aminocyclohex-3-en-1-yl)-N-benzyl-3,5-dichloro-1-(difluoromethyl)-1H-pyrrolo[3,2-b]pyridin-7-amine]
IC50 [1]: 30 to 300 nM
IC50 (ATXN3 pre-mRNA): 30 to 300 nM

N#Cc1cc(NCc2ccco2)c2sc([C@@H]3CC=CC[C@H]3N)c(Cl)c2n1 [Compound 443, 2-((1R,6R)-6-aminocyclohex-3-en-1-yl)-3-chloro-7-((furan-2-ylmethyl)amino)thieno[3,2-b]pyridine-5-carbonitrile]
IC50 [1]: ≤ 30 nM
IC50 (ATXN3 pre-mRNA): ≤ 30 nM

[2H]C1=C([2H])C([2H])([2H])[C@H](c2sc3c(NC([2H])([2H])c4ccccc4)cc(Cl)nc3c2C)[C@@H](N)C1([2H])[2H] [Compound 322, 2-((1S,6S)-6-aminocyclohex-3-en-1-yl-2,2,3,4,5,5-d6)-5-chloro-3-methyl-N-(phenylmethyl-d2)thieno[3,2-b]pyridin-7-amine]
IC50 [1]: 30 to 300 nM
IC50 (ATXN3 pre-mRNA): 30 to 300 nM

CC#CCNc1cc(Cl)nc2c(I)c([C@H]3CC=CC[C@@H]3N)sc12 [Compound 202, 2-((1S,6S)-6-aminocyclohex-3-en-1-yl)-N-(but-2-yn-1-yl)-5-chloro-3-iodothieno[3,2-b]pyridin-7-amine]
IC50 [1]: ≤ 30 nM
IC50 (ATXN3 pre-mRNA): ≤ 30 nM

N[C@@H]1CCCO[C@H]1c1c(Br)c2nc(Cl)cc(NCc3ccco3)c2n1C(F)F [Compound 426, 2-((2R,3R)-3-aminotetrahydro-2H-pyran-2-yl)-3-bromo-5-chloro-1-(difluoromethyl)-N-(furan-2-ylmethyl)-1H-pyrrolo[3,2-b]pyridin-7-amine]
IC50 [1]: 300 to 1000 nM
IC50 (ATXN3 pre-mRNA): 30 to 300 nM

N[C@@H]1CCCC(F)(F)[C@@H]1c1sc2c(NCc3cccs3)cc(Cl)nc2c1Br.N[C@H]1CCCC(F)(F)[C@H]1c1sc2c(NCc3cccs3)cc(Cl)nc2c1Br (mixture of isomers) [Compound 359, 2-((1R,6R)-6-amino-2,2-difluorocyclohexyl)-3-bromo-5-chloro-N-(thiophen-2-ylmethyl)thieno[3,2-b]pyridin-7-amine and 2-((1S,6S)-6-amino-2,2-difluorocyclohexyl)-3-bromo-5-chloro-N-(thiophen-2-ylmethyl)thieno[3,2-b]pyridin-7-amine]
IC50 [1]: 30 to 300 nM
IC50 (ATXN3 pre-mRNA): 30 to 300 nM

Cc1c([C@H]2CC=CC[C@@H]2N)sc2c(NCc3cccs3)nc(Cl)nc12 [Compound 268, 6-((1S,6S)-6-aminocyclohex-3-en-1-yl)-2-chloro-7-methyl-N-(thiophen-2-ylmethyl)thieno[3,2-d]pyrimidin-4-amine]
IC50 [1]: 30 to 300 nM
IC50 (ATXN3 pre-mRNA): 30 to 300 nM

N[C@@H]1CC=CC[C@H]1c1sc2c(NCc3ccco3)nc(Cl)nc2c1Br [Compound 396, 6-((1R,6R)-6-aminocyclohex-3-en-1-yl)-7-bromo-2-chloro-N-(furan-2-ylmethyl)thieno[3,2-d]pyrimidin-4-amine]
IC50 [1]: 300 to 1000 nM
IC50 (ATXN3 pre-mRNA): 30 to 300 nM

N[C@H]1CCCC[C@@H]1c1sc2c(NCC3=CCCC3)cc(Cl)nc2c1Br [Compound 361, 2-((1S,2S)-2-aminocyclohexyl)-3-bromo-5-chloro-N-(cyclopent-1-en-1-ylmethyl)thieno[3,2-b]pyridin-7-amine]
IC50 [1]: 30 to 300 nM
IC50 (ATXN3 pre-mRNA): 30 to 300 nM

N[C@H]1CC=CC[C@@H]1c1sc2c(NCc3cccs3)cc(Cl)nc2c1C#Cc1cccnc1 [Compound 307, 2-((1S,6S)-6-aminocyclohex-3-en-1-yl)-5-chloro-3-(pyridin-3-ylethynyl)-N-(thiophen-2-ylmethyl)thieno[3,2-b]pyridin-7-amine]
IC50 [1]: 30 to 300 nM
IC50 (ATXN3 pre-mRNA): 30 to 300 nM

Cc1c([C@@H]2OCCC[C@H]2N)sc2c(NCc3ccco3)cc(Cl)nc12 [Compound 134, ((2R,3R)-3-aminotetrahydro-2H-pyran-2-yl)-5-chloro-N-(furan-2-ylmethyl)-3-methylthieno[3,2-b]pyridin-7-amine]
IC50 [1]: > 1000 nM
IC50 (ATXN3 pre-mRNA): > 1000 nM

N[C@H]1CCC[C@@H]1c1sc2c(NCc3cccs3)cc(Cl)nc2c1-c1ccccc1 [Compound 131, 2-((1S,2S)-2-aminocyclopentyl)-5-chloro-3-phenyl-N-(thiophen-2-ylmethyl)thieno[3,2-b]pyridin-7-amine]
IC50 [1]: > 1000 nM
IC50 (ATXN3 pre-mRNA): > 1000 nM

2-((2R,3R)-3-aminobicyclo[3.2.1]octan-2-yl)-3-bromo-5-chloro-N-(thiophen-2-ylmethyl)thieno[3,2-b]pyridin-7-amine and 2-((2S,3S)-3-aminobicyclo[3.2.1]octan-2-yl)-3-bromo-5-chloro-N-(thiophen-2-ylmethyl)thieno[3,2-b]pyridin-7-amine [Compound 85]
IC50 [1]: > 1000 nM
IC50 (ATXN3 pre-mRNA): > 1000 nM
